Article PMC9691366, “Modulating the pharmacokinetic profile of Actinium-225-labeled macropa-derived radioconjugates by dual targeting of PSMA and albumin” (Theranostics, 2022)
pKd: −log10 of the molar value. Marks after values point to notes of the source that are not given here.

Assays:
[1] = type: physicochemical; conditions: pH 7.4
Method: 1-Octanol/water distribution coefficients (log D) were determined by applying the shake-flask-method. 20 µL of the reaction mixture were poured into 580 µL of 5xPBS (pH 7.4). Afterwards, 600 µL of 1-octanol was added and the two-phase-system was vigorously stirred for 5 min. Then, the samples were centrifuged, the phases were separated and the count rates were measured using ISOMED2160 sodium iodide crystal detector (at least 4 h after phase separation due to initial decay products).

[2] = system: LNCaP tumor-bearing SCID mice; type: in vivo, mouse
Method: Formalin-fixed and paraffin-embedded mouse tissues were cut in 5 µm sections and immunostained with appropriate antibodies according to standard techniques as well as with standard H&E staining. Antigen retrieval was performed in citrate buffer (pH 6) for all primary antibodies: Ki-67 (clone MIB1, DAKO; dilution 1:200), γH2AX (clone JBW301, Millipore; dilution 1:2500) and PSMA (clone YPSMA-1, Abcam; dilution 1:1000). The presence or absence of necrosis and its percentage in the tumor samples were evaluated by experienced pathologist. […] The data were analyzed using Kruskal-Wallis test followed by Dunn post hoc test using GraphPad Prism version 7.05 (GraphPad Software, San Diego, CA, USA).

[3] = target: PSMA (Homo sapiens, UniProt Q04609); assay: Saturation binding studies on PSMA-positive LNCaP cells; conditions: 95% confidence interval in brackets; for pKd: on ice
Sequence of PSMA (Q04609 whole entry): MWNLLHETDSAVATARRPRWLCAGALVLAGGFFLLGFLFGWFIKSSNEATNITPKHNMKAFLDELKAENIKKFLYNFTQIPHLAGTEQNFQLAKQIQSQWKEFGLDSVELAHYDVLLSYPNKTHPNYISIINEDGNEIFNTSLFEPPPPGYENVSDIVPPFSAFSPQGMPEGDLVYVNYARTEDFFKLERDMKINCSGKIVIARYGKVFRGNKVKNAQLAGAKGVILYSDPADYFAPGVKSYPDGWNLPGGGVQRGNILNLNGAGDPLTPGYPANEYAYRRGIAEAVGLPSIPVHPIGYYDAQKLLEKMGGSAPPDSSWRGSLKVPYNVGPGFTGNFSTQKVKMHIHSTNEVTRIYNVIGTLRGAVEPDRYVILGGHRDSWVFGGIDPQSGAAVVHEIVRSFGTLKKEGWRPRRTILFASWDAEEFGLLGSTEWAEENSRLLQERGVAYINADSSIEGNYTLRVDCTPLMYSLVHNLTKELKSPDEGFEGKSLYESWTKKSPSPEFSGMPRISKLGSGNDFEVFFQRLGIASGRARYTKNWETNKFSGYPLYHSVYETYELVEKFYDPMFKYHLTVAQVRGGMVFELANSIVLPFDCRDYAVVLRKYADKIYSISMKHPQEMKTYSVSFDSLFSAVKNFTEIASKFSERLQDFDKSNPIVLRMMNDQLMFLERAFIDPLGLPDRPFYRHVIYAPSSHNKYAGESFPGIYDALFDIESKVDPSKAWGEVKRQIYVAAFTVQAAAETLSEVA
Method: The cell binding behavior of the ^225Ac-labeled, 4-(p-iodophenyl)butyrate-containing PSMA radioconjugates [^225Ac]Ac-mcp-M-alb-PSMA and [^225Ac]Ac-mcp-D-alb-PSMA was analyzed in saturation binding studies using PSMA-positive LNCaP cells.
Figure 2 Saturation binding curves for (A) [^225Ac]Ac-mcp-M-alb-PSMA and (B) [^225Ac]Ac-mcp-D-alb-PSMA. Nonspecific binding was determined in the presence of 500 µM unlabeled PSMA-617. Specific binding was calculated as the difference between total and nonspecific binding (n = 3 for each data point).
Saturation binding studies to determine the equilibrium dissociation constants (KD) and the maximum binding capacities (Bmax) were performed as described elsewhere. In short, 30000 LNCaP cells were seeded in 48-well microplates (Greiner Bio-One GmbH, Frickenhausen, Germany) and cultivated for 48 h to allow cell adhesion and growth. During the experiment, cells were kept on ice and all reagents were added ice-cold. The cell culture medium was replaced by PBS (200 µL/well) and the microplates were preincubated for 30 min at 4 °C. The ^225Ac-radioconjugates were added to the wells in a volume of 200 µL at different concentrations (15 pM to 500 nM). The nonspecific binding was assessed in parallel by blocking the LNCaP cells with a 1000-fold excess of unlabeled PSMA-617. After incubation of the microplates for 90 min on ice, the cells were washed three times with ice-cold PBS. The cells were lysed in 0.1 M NaOH containing 1% (w/v) sodium dodecyl sulfate. The activity of cell lysates was measured using an automatic gamma counter (Hidex Deutschland Vertrieb GmbH, Mainz, Germany).

[4] = system: LNCaP cells; assay: Clonogenic survival assay; type: cell-based, human; conditions: for inhibition of colony formation: 1 h exposure; for EC50 for 1 h treatment: clonogenic survival of LNCaP cells, 95% confidence interval in brackets
Method: Figure 3 Clonogenic survival of LNCaP cells after treatment with [^225Ac]Ac-mcp-M-alb-PSMA or [^225Ac]Ac-mcp-D-alb-PSMA for (A) 1 h or (B) 4 h, respectively. Cells were exposed to different activity concentrations of 225Ac-labeled PSMA conjugates for the indicated treatment time and thereafter supplemented with fresh medium. Eight days later, colonies formed were stained and counted by digital analysis. Data points represent the mean colony number of three samples, normalized to values obtained for the untreated reference samples.
Colony formation of LNCaP cells upon exposure to increasing activity concentrations of both ^225Ac-radioconjugates was analyzed as previously reported with slight modifications. Briefly, 6000 LNCaP cells were seeded in 6-well microplates (Greiner Bio-One GmbH, Frickenhausen, Germany) and cultivated overnight to allow cell adhesion. The cell culture medium was replaced by serum-free RPMI-1640 medium (2 mL/well) and the microplates were further incubated at 37 °C. After 1 h, five different activity concentrations (0.05, 0.5, 1, 5, and 50 kBq/mL) of the ^225Ac-radioconjugates were added in triplicate. After 1 or 4 h of incubation at 37 °C, the supernatants were replaced by fresh RPMI-1640 medium with 10% FCS (2 mL/well) and plates were incubated at 37 °C for 8 d. Finally, the cell culture medium was discarded and colonies were stained with 0.5% crystal violet in 50% methanol (1 mL/well) for 30 min, after which the plates were rinsed three times with deionized water and subsequently air-dried. The plates were scanned with an Amersham Typhoon 5 Scanner (Cytiva Europe GmbH, Freiburg, Germany) and the colonies were counted using the Image-Quant TL software (Version 8.1, Cytiva Europe GmbH, Freiburg, Germany).

In the case of O=C(O)CC[C@H](NC(=O)N[C@@H](CCCCNC(=O)[C@H](Cc1ccc2ccccc2c1)NC(=O)[C@H]1CC[C@H](CNC(=O)[C@H](CCCCn2cc(COc3cc(CN4CCOCCOCCN(Cc5cccc(C(=O)O)n5)CCOCCOCC4)nc(C(=O)O)c3)nn2)NC(=O)[C@H](CCC(=O)O)NC(=O)CCCc2ccc(I)cc2)CC1)C(=O)O)C(=O)O [[^225Ac]Ac-mcp-M-alb-PSMA, metal not drawn], the logD [1] was -2.4, the “Ki67 expression in tumor (cellular proliferation)” value ([2]; compared to untreated controls) was “did not show any significant decrease in proliferation” and the “γH2AX staining of tumor tissue (DNA damage)” value ([2]; compared to untreated controls) was “significant DNA damage in tumor cells”. For the same compound, the “H&E stain of liver tissue (necrosis)” value ([2]; mouse, in vivo) was “significant necrosis”, the “average γH2AX histoscore, kidney” value ([2]; mouse, in vivo) was 62 and the Bmax [3] was 0.46 (0.43 to 0.49)^# pmol/mg of protein. The pKd [3] was 7.63, the “inhibition of colony formation” value ([4]; 0.5 kBq/mL) was “about 50%” and the “inhibition of colony formation” value ([4]; 5 kBq/mL) was “almost complete inhibition of colony formation”. The “EC50 for 1 h treatment” value [4] was 0.5233 (0.4010 to 0.6767)^# kBq/mL.

For O=C(O)CC[C@H](NC(=O)N[C@@H](CCCCNC(=O)[C@H](Cc1ccc2ccccc2c1)NC(=O)[C@H]1CC[C@H](CNC(=O)[C@H](CCCCn2cc(COc3cc(CN4CCOCCOCCN(Cc5cc(OCc6cn(CCCC[C@H](NC(=O)[C@H](CCC(=O)O)NC(=O)CCCc7ccc(I)cc7)C(=O)NC[C@H]7CC[C@H](C(=O)N[C@@H](Cc8ccc9ccccc9c8)C(=O)NCCCC[C@H](NC(=O)N[C@@H](CCC(=O)O)C(=O)O)C(=O)O)CC7)nn6)cc(C(=O)O)n5)CCOCCOCC4)nc(C(=O)O)c3)nn2)NC(=O)[C@H](CCC(=O)O)NC(=O)CCCc2ccc(I)cc2)CC1)C(=O)O)C(=O)O [[^225Ac]Ac-mcp-D-alb-PSMA, metal not drawn], the logD [1] was -1.7, the “H&E stain of tumor tissue (necrosis)” value ([2]; 72, 120 and 168 h p.i.) was “necrotic lesions in the group 72 h p.i” and the “average γH2AX histoscore, kidney” value ([2]; mouse, in vivo) was 99. For the same compound, the Bmax [3] was 1.96 (1.89 to 2.04)^# pmol/mg of protein, the pKd [3] was 7.94 and the “inhibition of colony formation” value ([4]; 0.05 kBq/mL) was “about 50%”. The “inhibition of colony formation” value ([4]; 0.5 kBq/mL) was “virtually abrogated clonogenic activity” and the “EC50 for 1 h treatment” value [4] was 0.0519 (0.0353 to 0.0753)^# kBq/mL.
